Measurements: patent publication US5494895A, “Scorpion peptide margatoxin with immunosuppressant activity” (Merck & Co., Inc., priority 1993, dated 1996)
Peptide text beside a SMILES is read from it.

Columns and labels:
[1] = molecular target: T1, ISK (Rattus norvegicus, UniProt P15383); assay: Two-electrode voltage clamp of Xenopus oocytes expressing ISK; format: cell-based; details: 200 nM MgTX
T1 construct: expressed in transfected cells; host or cells: Xenopus oocytes injected with RNA transcribed in vitro from the cDNA clone
Description: (§1) Ionic currents were also recorded from Xenopus oocytes that had been injected with RNA transcribed in vitro from one or another of the following K^+ channel cDNA clones. Kv 1 (rat Kv 1.5), rat or human Kv 3 (rat Kv 1.3; human Kv 1.3), Kv 4 (rat Kv 3.1 ), rat ISK, Kv 2 (rat Kv 1.6) or Drosophila Shaker-H4. The names of the clones are listed as originally published, with the appropriate parenthetical designation according to the unified gene nomenclature proposed by Chandy. Shaker-H4 is a splice variant from the original Drosophila Shaker K^+ channel gene. Kv 1.3 is the ChTX-sensitive delayed rectifier current found in rat and human T lymphocytes (data from rat and human clones were indistinguishable and were combined) and it is a member of the Shaker family. Kv 1.5 is a channel cloned from rat (Swanson et al., Neuron, 4, 929, 1990) and is another member of the Shaker family. The Kv 1.5 transcript has been detected in pancreatic β cells as described in Philipson, et al., Proc. Natl. Acad. Sci. U.S.A. 88, 53, 1991. […] The ISK transcript has been detected in lymphocytes (Attali et al., J. Biol. Chem,. 267, 8650, 1992), but no evidence of the IKs current has been found in those cells.
(§2) Methods for oocyte isolation and micro-injection were previously described in Goldin, Meth. […] Currents expressed in oocytes were measured using a DAGAN model CA-1 two-electrode voltage clamp. […]

[2] = molecular target: T2, Kv 1 (rat Kv 1.5) (Rattus norvegicus, UniProt P19024); assay: Two-electrode voltage clamp of Xenopus oocytes expressing Kv 1 (Kv 1.5); format: cell-based; details: 200 nM MgTX
T2 construct: expressed in transfected cells; host or cells: Xenopus oocytes injected with RNA transcribed in vitro from the cDNA clone
Description: as §1, §2

[3] = molecular target: T3, Kv 1.6 (Rattus norvegicus, UniProt P17659); assay: Two-electrode voltage clamp of Xenopus oocytes expressing Kv 2 (Kv 1.6); format: cell-based; details: read-out: concentration at which Kv 1.6 was half blocked
T3 construct: expressed in transfected cells; host or cells: Xenopus oocytes injected with RNA transcribed in vitro from the cDNA clone
Description: as §1, §2

[4] = system: human T-lymphocytes; details: cited from earlier work
[5] = molecular target: T4, Maxi-K channel (Bos taurus, UniProt Q28204); assay: [125I]ChTX binding to bovine aortic smooth muscle sarcolemmal membranes; details: concentrations up to 10 nM
T4 construct: from tissue; host or cells: bovine aortic smooth muscle sarcolemmal membranes
Description: The potency of MgTX as an inhibitor of [^125 I]ChTX binding to Kv 1.3 was evaluated. The binding of [^125 I]ChTX to either rat brain synaptic plasma membrane vesicles (Kv 1.3 channel; Vazquez et al., J. Biol. Chem. 265, 15564, 1990) or bovine aortic smooth muscle sarcolemmal membranes (Maxi-K channel; Vazquez et al., J. Biol. Chem. 264, 20402, 1989) was determined as described. Briefly, membrane vesicles were incubated with [^125 I]ChTX in the presence or absence of other added agents, until equilibrium was achieved. Separation of bound from free ligand was accomplished by filtration through GF/C glass fiber filters (WHATMAN) that had been presoaked in 0.5% polyethyleneimine. Nonspecific binding was determined in the presence of 10 nM unlabeled ChTX. Data from saturation experiments were analyzed in a Scatchard representation to determine Kd and Bmax values. Triplicate samples were obtained for each experimental point and the data were averaged. The standard deviation of the mean was typically less than 2%. […] As an indication of selectivity, MgTX had no effect on [^125 I]ChTX binding to the Maxi-K channel in smooth muscle membranes at concentrations up to 10 nM.

[6] = molecular target: T5, Kv 3.1 (Rattus norvegicus, UniProt P25122); assay: Two-electrode voltage clamp of Xenopus oocytes expressing Kv 4 (Kv 3.1); format: cell-based; details: 200 nM MgTX
T5 construct: expressed in transfected cells; host or cells: Xenopus oocytes injected with RNA transcribed in vitro from the cDNA clone
T5 sequence (P25122 1-585): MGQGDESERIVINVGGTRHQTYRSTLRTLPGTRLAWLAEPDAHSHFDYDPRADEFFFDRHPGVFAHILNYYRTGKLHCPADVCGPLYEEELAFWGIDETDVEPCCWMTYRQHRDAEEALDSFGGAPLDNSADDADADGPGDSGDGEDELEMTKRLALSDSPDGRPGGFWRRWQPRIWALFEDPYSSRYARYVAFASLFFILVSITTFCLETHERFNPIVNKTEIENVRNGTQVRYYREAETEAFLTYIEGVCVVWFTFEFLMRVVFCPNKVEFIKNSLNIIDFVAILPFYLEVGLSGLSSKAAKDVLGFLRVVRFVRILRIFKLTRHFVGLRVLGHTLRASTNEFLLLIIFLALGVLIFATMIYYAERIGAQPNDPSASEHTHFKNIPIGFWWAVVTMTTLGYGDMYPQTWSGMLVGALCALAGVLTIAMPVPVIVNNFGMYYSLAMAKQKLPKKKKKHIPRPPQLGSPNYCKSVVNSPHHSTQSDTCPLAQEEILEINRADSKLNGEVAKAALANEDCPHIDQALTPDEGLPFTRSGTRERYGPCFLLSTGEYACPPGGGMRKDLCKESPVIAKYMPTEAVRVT
Description: as §1, §2

[7] = system: three different ChTX-sensitive, Ca2+-activated K+ channels of lymphocytes; details: even at 100 nM; cited from earlier work

T2 sequence (P19024 whole entry): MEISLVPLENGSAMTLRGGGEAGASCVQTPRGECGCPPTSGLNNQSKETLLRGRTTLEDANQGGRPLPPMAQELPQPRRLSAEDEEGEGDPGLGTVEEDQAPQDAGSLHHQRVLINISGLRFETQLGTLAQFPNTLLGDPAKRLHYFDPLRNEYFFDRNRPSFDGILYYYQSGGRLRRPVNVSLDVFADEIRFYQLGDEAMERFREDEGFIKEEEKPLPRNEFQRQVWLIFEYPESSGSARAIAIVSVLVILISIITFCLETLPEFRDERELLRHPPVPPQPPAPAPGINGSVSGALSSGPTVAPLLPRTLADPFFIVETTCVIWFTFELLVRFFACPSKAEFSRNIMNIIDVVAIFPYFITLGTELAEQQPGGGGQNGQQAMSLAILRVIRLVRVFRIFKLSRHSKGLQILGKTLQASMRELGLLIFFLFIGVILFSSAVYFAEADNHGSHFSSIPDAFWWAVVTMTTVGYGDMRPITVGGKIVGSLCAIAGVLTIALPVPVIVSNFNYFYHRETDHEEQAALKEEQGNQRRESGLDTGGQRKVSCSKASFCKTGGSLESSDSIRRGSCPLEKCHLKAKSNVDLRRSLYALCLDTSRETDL
T4 sequence (Q28204 whole entry): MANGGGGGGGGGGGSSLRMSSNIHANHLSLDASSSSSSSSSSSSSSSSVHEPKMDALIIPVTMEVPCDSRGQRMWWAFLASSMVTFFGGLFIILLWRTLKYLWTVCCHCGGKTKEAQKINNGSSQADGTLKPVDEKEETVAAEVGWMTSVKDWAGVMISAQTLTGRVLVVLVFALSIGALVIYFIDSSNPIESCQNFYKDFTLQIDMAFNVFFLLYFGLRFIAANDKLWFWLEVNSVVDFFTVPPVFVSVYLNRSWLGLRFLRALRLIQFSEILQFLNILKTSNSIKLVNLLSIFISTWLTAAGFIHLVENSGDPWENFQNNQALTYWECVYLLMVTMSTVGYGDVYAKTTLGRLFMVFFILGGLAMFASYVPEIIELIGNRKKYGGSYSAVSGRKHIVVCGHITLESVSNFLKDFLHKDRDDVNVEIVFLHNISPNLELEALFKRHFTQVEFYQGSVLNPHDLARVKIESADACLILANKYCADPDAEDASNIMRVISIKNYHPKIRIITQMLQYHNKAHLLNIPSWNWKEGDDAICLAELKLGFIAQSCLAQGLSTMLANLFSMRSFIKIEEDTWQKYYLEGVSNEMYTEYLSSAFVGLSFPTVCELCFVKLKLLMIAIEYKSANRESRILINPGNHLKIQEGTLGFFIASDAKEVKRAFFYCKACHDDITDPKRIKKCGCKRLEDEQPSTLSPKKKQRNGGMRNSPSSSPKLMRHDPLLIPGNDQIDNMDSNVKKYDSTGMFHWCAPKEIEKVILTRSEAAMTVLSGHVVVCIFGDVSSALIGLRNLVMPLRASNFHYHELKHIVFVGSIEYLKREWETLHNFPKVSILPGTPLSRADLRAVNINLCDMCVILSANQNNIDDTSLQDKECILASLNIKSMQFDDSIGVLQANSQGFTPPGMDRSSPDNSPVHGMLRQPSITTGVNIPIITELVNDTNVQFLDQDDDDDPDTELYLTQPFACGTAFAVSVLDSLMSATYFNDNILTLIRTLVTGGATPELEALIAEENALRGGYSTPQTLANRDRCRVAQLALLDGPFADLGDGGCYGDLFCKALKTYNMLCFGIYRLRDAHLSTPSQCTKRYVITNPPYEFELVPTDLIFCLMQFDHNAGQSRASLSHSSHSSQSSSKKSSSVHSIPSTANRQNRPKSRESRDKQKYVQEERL
T4 sequence (Q28067 whole entry partner): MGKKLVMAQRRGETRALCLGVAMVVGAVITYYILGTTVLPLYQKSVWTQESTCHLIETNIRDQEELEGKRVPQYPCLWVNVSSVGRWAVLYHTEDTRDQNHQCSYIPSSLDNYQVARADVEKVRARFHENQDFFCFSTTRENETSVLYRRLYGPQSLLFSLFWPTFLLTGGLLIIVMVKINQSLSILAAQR
T1 sequence (P15383 whole entry): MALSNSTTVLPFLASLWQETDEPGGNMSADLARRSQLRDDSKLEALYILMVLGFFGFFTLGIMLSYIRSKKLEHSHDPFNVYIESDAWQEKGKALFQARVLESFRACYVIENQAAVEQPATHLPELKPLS
T1 sequence (P70057 whole entry partner): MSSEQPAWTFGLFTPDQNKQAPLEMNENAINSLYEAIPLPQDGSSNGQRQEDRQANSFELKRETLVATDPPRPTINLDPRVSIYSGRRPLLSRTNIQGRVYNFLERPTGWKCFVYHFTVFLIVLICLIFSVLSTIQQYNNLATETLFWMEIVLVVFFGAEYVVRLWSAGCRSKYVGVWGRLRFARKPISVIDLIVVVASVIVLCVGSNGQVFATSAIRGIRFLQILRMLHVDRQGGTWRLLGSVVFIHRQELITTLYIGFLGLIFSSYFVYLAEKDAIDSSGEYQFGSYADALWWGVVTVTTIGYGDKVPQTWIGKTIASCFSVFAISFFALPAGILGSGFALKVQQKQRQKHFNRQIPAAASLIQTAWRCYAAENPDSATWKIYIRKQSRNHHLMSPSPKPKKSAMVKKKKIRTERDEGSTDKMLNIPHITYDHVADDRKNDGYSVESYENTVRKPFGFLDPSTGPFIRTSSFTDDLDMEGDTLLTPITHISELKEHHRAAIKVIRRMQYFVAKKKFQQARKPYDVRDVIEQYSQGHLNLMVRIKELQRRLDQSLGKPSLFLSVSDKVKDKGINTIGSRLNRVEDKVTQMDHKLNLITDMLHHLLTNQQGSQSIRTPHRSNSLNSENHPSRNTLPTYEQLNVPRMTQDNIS
T3 sequence (P17659 whole entry): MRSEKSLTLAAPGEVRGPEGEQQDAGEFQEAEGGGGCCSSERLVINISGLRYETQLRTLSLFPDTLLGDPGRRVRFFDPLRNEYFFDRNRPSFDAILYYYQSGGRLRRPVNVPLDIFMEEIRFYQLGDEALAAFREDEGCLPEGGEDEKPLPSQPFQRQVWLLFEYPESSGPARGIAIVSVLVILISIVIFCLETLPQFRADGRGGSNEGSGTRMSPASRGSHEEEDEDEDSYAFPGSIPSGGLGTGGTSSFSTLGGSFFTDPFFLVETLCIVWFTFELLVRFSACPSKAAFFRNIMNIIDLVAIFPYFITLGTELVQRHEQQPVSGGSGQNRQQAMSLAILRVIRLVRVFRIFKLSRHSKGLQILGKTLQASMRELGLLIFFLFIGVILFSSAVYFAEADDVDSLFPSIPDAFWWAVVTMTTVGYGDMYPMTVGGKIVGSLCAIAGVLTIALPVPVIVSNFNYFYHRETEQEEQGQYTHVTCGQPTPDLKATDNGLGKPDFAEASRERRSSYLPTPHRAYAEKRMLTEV

Which “sensitivity of cloned channel ISK to block” value [1] does the source give for `CC[C@H](C)[C@H](NC(=O)[C@@H](N)[C@@H](C)O)C(=O)N[C@H](C(=O)N[C@@H](CC(N)=O)C(=O)N[C@H](C(=O)N[C@@H](CCCCN)C(=O)N[C@H]1CSSC[C@@H]2NC(=O)[C@H](CCCCN)NC(=O)[C@H](C)NC(=O)CNC(=O)[C@H](C)NC(=O)[C@H](CO)NC(=O)[C@H](CCC(N)=O)NC(=O)CNC(=O)[C@H](Cc3ccccc3)NC(=O)[C@H](CCC(N)=O)NC(=O)[C@H](C)NC(=O)[C@H](CCCCN)NC(=O)[C@@H]3CSSC[C@@H](C(=O)N[C@@H](Cc4ccc(O)cc4)C(=O)N4CCC[C@H]4C(=O)N[C@@H](Cc4c[nH]cn4)C(=O)O)NC(=O)[C@H](CCCCN)NC(=O)[C@H](CSSC[C@H](NC(=O)[C@H](CCC(N)=O)NC(=O)[C@H](CCCCN)NC(=O)[C@@H]4CCCN4C(=O)[C@H](CO)NC(=O)[C@H]([C@@H](C)O)NC1=O)C(=O)N[C@@H](CC(C)C)C(=O)N1CCC[C@H]1C(=O)N1CCC[C@H]1C(=O)N3)NC(=O)[C@H](CCCCN)NC(=O)CNC(=O)[C@H](CC(N)=O)NC(=O)[C@H](CCSC)NC2=O)C(C)C)[C@@H](C)CC` [MgTX, Margatoxin] (HELM PEPTIDE1{T.I.I.N.V.K.C.T.S.P.K.Q.C.L.P.P.C.K.A.Q.F.G.Q.S.A.G.A.K.C.M.N.G.K.C.K.C.Y.P.H}$PEPTIDE1,PEPTIDE1,7:R3-29:R3|PEPTIDE1,PEPTIDE1,13:R3-34:R3|PEPTIDE1,PEPTIDE1,17:R3-36:R3$$$V2.0; N-terminus and C-terminus assumed; bridges inferred) here?
The value was “completely insensitive”.

And the “sensitivity of cloned channel Kv 5 to block” value [2]?
Its value is “completely insensitive”.

And the IC50 [3]?
The IC50 was 5 nM.

And the “effect on interleukin 2 production” value [4]?
Its value is “inhibits interleukin 2 production”.

What about the “effect on [125I]ChTX binding to the Maxi-K channel in smooth muscle membranes” value [5] of the same molecule?
Its value is “no effect”.

What about the “sensitivity of cloned channel Kv 3.1 to block” value [6] of the same molecule?
Its value is “completely insensitive”.

And the “effect on three ChTX-sensitive Ca2+-activated K+ channels of lymphocytes” value [7]?
The value was “no effect”.
